From article PMC5050486 (Scientific Reports, 2016)
“Also recorded” adds a separate entry of the source. Counter-ions that a name gives are not always drawn. Like-named read-outs stand apart in the source and are kept apart here. Where a SMILES comes first, the peptide text is derived from it. Where no end group is shown, it is not given here.

Assays:
[1] = biological target: T1, caspase-3 (Homo sapiens, UniProt P42574); test: Host protease FRET test, caspase-3; assay type: biochemical; conditions: for inhibition at 33 µM: read-out: Percent Inhibition with 33 μM of drug, Casp 3
T1 construct: purchased BioVision
T1 sequence (P42574 29-277): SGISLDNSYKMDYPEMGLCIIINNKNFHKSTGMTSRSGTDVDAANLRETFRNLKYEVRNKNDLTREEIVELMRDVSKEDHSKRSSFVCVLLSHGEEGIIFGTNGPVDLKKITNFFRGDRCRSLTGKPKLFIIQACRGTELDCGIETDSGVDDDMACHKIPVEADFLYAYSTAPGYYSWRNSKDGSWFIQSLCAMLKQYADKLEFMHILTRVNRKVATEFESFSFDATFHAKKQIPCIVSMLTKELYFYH

[2] = cited from earlier work
[3] = system: LF-PA treated mouse macrophage RAW264.7 cells; assay type: cell-based
[4] = biological target: T2, calpain 1 (Homo sapiens, UniProt P07384); test: Host protease FRET test, calpain; assay type: biochemical; conditions: for inhibition at 33 µM: read-out: Percent Inhibition with 33 μM of drug, Calpain
T2 construct: purchased BioVision
T2 sequence (P07384 1-714): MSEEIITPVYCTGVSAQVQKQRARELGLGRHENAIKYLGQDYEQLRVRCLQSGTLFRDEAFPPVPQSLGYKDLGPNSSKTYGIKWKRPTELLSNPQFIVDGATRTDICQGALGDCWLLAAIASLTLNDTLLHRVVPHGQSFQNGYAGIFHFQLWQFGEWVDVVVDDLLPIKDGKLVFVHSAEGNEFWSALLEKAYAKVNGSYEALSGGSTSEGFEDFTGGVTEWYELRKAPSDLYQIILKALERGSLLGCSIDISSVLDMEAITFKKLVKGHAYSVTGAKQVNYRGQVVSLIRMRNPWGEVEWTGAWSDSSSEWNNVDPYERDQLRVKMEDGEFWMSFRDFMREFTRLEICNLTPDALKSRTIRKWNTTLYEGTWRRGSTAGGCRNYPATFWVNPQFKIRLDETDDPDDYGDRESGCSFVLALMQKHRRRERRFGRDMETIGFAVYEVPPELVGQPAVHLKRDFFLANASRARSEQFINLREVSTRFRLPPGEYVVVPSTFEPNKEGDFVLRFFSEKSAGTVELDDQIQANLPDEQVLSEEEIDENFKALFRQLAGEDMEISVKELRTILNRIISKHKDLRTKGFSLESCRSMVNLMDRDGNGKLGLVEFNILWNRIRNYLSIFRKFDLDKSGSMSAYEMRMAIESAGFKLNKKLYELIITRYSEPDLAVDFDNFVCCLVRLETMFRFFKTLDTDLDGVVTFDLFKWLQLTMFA
T2 sequence (P04632 1-268 partner): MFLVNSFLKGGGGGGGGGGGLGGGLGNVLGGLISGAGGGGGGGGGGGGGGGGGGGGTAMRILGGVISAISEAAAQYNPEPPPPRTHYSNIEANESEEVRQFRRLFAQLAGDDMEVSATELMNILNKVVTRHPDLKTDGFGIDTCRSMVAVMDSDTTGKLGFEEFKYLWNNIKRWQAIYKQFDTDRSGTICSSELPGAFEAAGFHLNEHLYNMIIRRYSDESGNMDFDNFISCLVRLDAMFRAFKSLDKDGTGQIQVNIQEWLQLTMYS

[5] = system: Cholera toxin treated RAW264.7 cells; assay type: cell-based, mouse
[6] = system: Pseudomonas aeruginosa exotoxin A treated RAW264.7 cells; assay type: cell-based, mouse
[7] = biological target: cathepsin B (Homo sapiens, UniProt P07858); test: Host protease FRET test, cathepsin B; assay type: biochemical; conditions: 33 μM drug, N/I = no FRET inhibition; for inhibition at 33 µM: read-out: Percent Inhibition with 33 μM of drug, Cath B
[8] = biological target: anthrax LF (Bacillus anthracis, UniProt P15917); test: biochemical; conditions: for inhibition at 33 µM: read-out: Percent Inhibition with 33 μM of drug, LF
Sequence of anthrax LF (P15917 34-809 limits assumed): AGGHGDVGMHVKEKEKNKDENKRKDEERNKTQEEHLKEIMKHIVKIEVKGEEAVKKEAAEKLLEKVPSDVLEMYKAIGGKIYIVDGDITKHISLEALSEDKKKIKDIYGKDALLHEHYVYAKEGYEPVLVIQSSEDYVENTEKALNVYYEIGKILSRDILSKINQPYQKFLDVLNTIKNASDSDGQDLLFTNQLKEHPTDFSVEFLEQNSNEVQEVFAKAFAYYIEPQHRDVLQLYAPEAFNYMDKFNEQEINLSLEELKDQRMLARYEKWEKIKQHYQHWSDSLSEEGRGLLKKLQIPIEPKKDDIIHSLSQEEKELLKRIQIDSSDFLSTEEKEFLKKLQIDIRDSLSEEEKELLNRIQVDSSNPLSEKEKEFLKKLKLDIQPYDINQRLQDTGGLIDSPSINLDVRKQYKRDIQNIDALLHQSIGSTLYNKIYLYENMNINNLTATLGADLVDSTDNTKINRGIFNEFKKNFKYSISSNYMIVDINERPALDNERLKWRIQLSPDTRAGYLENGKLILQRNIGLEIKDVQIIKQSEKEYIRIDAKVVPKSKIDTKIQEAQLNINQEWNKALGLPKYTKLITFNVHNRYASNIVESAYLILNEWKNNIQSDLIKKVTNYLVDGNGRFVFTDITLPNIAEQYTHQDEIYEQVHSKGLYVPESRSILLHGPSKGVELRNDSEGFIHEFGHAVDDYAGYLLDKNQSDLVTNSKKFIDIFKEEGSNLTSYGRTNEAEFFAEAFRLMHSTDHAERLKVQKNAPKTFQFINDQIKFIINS

[9] = biological target: T3, human furin (Homo sapiens, UniProt P09958); test: Host protease FRET test, furin; assay type: biochemical; conditions: for inhibition at 33 µM: read-out: Percent Inhibition with 33 μM of drug, Furin
T3 construct: purchased New England Biolabs
T3 sequence (P09958 108-794): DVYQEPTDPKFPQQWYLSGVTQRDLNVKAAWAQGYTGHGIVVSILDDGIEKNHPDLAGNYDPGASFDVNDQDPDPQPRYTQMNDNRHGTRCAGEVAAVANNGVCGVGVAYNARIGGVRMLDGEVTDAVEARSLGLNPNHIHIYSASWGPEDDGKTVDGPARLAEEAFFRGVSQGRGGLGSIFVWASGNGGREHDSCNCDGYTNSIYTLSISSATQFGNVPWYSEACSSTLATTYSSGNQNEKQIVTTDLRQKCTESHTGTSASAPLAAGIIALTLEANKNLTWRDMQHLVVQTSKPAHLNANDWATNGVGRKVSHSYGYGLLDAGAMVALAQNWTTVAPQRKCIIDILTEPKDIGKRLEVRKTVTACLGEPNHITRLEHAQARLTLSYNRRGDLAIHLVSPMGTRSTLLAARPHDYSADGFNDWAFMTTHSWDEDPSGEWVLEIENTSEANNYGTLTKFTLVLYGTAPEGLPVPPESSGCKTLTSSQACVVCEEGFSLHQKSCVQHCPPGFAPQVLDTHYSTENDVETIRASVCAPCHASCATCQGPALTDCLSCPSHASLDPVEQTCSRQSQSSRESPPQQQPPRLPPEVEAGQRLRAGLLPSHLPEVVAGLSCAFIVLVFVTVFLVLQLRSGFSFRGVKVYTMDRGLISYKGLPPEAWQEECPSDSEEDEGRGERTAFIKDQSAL

[10] = biological target: T4, caspase-1 (Homo sapiens, UniProt P29466); test: Host protease FRET test, caspase-1; assay type: biochemical; conditions: read-out: Percent Inhibition with 33 μM of drug, Casp 1
T4 construct: purchased BioVision
T4 sequence (P29466 120-404): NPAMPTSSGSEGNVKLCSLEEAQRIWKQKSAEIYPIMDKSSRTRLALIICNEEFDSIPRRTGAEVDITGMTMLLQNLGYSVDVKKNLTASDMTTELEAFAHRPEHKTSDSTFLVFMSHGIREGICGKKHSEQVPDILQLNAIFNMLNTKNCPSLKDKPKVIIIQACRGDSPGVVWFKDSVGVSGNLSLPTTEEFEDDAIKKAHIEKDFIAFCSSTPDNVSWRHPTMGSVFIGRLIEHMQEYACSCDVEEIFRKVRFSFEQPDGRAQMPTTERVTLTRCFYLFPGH

[11] = system: LF-PA63 treated RAW264.7 cells; assay type: cell-based, mouse
[12] = 33 μM drug, FRET, N/I = no FRET inhibition

CCCCCCCCCCCCCCCC(=O)OC[C@H](O)[C@H]1OC(=O)C(O)=C1O [Ascorbic acid 6-palmitate]
inhibition at 33 µM [1, 12]: 88 ± 2.9%
Critical Micelle Concentration (CMC) [2]: 0.8 mM
Protection against LF-PA mediated cell killing [3]: complete protection
inhibition at 33 µM [4, 12]: 24 ± 19.4%
Protection against CT-mediated cell killing [5]: substantial protection
Protection against PE-mediated cell killing [6]: substantial protection
Percent Inhibition with 33 μM of drug, Cath B [7]: N/I
IC50 [8]: 460 ± 260 nM
inhibition at 33 µM [8]: 99 ± 1.9%
inhibition at 33 µM [9, 12]: 16 ± 0.67%
inhibition at 33 µM [10, 12]: 18 ± 1.12%

CCOc1nc2cccc(C(=O)OC(C)OC(=O)OC3CCCCC3)c2n1Cc1ccc(-c2ccccc2-c2nnn[nH]2)cc1 (stereo not shown) [Candesartan cilexetil]
Percent Inhibition with 33 μM of drug, Casp 3 [1, 12]: N/I
Percent Inhibition with 33 μM of drug, Calpain [4, 12]: N/I
inhibition at 33 µM [7]: 10 ± 3.1%
IC50 [8]: 400 ± 20 nM
inhibition at 33 µM [8]: 100 ± 0.07%
inhibition at 33 µM [9, 12]: 88 ± 0.12%
inhibition at 33 µM [10, 12]: 16 ± 0.1%

CCCCCCCCCCCCCCCC[N+](C)(C)Cc1ccccc1 [Cetalkonium chloride]
Percent Inhibition with 33 μM of drug, Casp 3 [1, 12]: N/I
inhibition at 33 µM [4, 12]: 68 ± 14.8%
Percent Inhibition with 33 μM of drug, Cath B [7]: N/I
IC50 [8]: 160 ± 90 nM
inhibition at 33 µM [8]: 106 ± 1.21%
inhibition at 33 µM [9, 12]: 8 ± 6.1%
inhibition at 33 µM [10, 12]: 32 ± 1.17%

CCCCC(CC)COC(=O)CC(C(=O)OCC(CC)CCCC)S(=O)(=O)O (stereo not shown) [Docusate sodium]
Percent Inhibition with 33 μM of drug, Casp 3 [1, 12]: N/I
inhibition at 33 µM [4, 12]: 130 ± 0.19%
Percent Inhibition with 33 μM of drug, Cath B [7]: N/I
IC50 [8]: 670 ± 50 nM
inhibition at 33 µM [8]: 95 ± 0.28%
inhibition at 33 µM [9, 12]: 69 ± 0.13%
inhibition at 33 µM [10, 12]: 35 ± 0.01%

CCCCCCCCCCCC[N+](C)(C)CCOc1ccccc1 [Domiphen bromide]
Percent Inhibition with 33 μM of drug, Casp 3 [1, 12]: N/I
Percent Inhibition with 33 μM of drug, Calpain [4, 12]: N/I
inhibition at 33 µM [7]: 23 ± 1.5%
IC50 [8]: 290 ± 30 nM
inhibition at 33 µM [8]: 103 ± 0.82%
inhibition at 33 µM [9, 12]: 7 ± 6.64%
inhibition at 33 µM [10, 12]: 17 ± 2.17%

CSCC[C@H](N)C(=O)N[C@@H](C)C(=O)N[C@@H](CCCNC(=N)N)C(=O)N[C@@H](Cc1ccc(O)cc1)C(=O)N[C@@H](CCCNC(=N)N)C(=O)N[C@@H](CS)C(=O)N[C@@H](CS)C(=O)N[C@@H](CCCNC(=N)N)C(=O)N[C@@H](CO)C(=O)N[C@@H](CCC(N)=O)C(=O)N[C@@H](CO)C(=O)N[C@@H](CCCNC(=N)N)C(=O)N[C@@H](CO)C(=O)N[C@@H](CCCNC(=N)N)C(=O)N[C@@H](Cc1ccc(O)cc1)C(=O)N[C@@H](Cc1ccc(O)cc1)C(=O)N[C@@H](CCCNC(=N)N)C(=O)O [Human Sperm Protamine (1-17)] (H-MARYRCCRSQSRSRYYR-OH; N-terminus and C-terminus assumed)
inhibition at 33 µM [8]: 37 ± 0.7%

CSCC[C@H](NC(=O)[C@H](C)NC(=O)[C@@H](N)CCCNC(=N)N)C(=O)N[C@@H](CCCNC(=N)N)C(=O)N[C@@H](CS)C(=O)N[C@@H](CS)C(=O)N[C@@H](CCCNC(=N)N)C(=O)N1CCC[C@H]1C(=O)N[C@@H](CCCNC(=N)N)C(=O)N[C@@H](Cc1ccc(O)cc1)C(=O)N[C@@H](CCCNC(=N)N)C(=O)N1CCC[C@H]1C(=O)N[C@@H](CCCNC(=N)N)C(=O)N[C@@H](CS)C(=O)N[C@@H](CCCNC(=N)N)C(=O)N[C@@H](CCCNC(=N)N)C(=O)N[C@@H](Cc1c[nH]cn1)C(=O)O [Human Sperm Protamine (35-51)] (H-RAMRCCRPRYRPRCRRH-OH; N-terminus and C-terminus assumed)
inhibition at 33 µM [8]: 55 ± 0.9%

CCCCCCCCCCCCc1ccccc1S(=O)(=O)O [Sodium dodecyl benzenesulfonate]
inhibition at 33 µM [1, 12]: 77 ± 2.5%
inhibition at 33 µM [4, 12]: 26 ± 7.01%
inhibition at 33 µM [7]: 96 ± 2.5%
IC50 ([8]; read-out: LF IC50): 590 ± 80 nM
inhibition at 33 µM [8]: 104 ± 0.4%
inhibition at 33 µM [9, 12]: 6 ± 3.34%
inhibition at 33 µM [10, 12]: 14 ± 2.06%

CCCCCCCCCCCCOS(=O)(=O)O [Sodium lauryl sulfate]
inhibition at 33 µM [1]: 83 ± 2.7%
Critical Micelle Concentration (CMC) [2]: 8 mM
inhibition at 33 µM [4]: 95 ± 6.02%
IC50 [8]: 2900 ± 80 nM
inhibition at 33 µM [8]: 93 ± 0.57%
inhibition at 33 µM [9]: 2 ± 4.56%
inhibition at 33 µM [10]: 7 ± 3.06%

MARYRCCRSQSRSRYYRQRQRSRRRRRRSCQTRRRAMRCCRPRYRPRCRRH (cysteines drawn unpaired) [Human Sperm Protamine (1-51)]
inhibition at 33 µM [8]: 88 ± 1.2%
inhibition at 33 µM [9, 12]: 97 ± 1.7%

MPRRRRSSSR [Salmon Sperm Protamine (1-10)]
IC50 [8]: 298000 ± 10 nM
inhibition at 33 µM [8]: 28 ± 1%
Percent Inhibition with 33 μM of drug, Furin [9, 12]: N/I

MPRRRRSSSRPVRRRRRPRVSR [Salmon Sperm Protamine (1-22)]
IC50 [8]: 1000 ± 40 nM
inhibition at 33 µM [8]: 98 ± 0.6%
inhibition at 33 µM [9, 12]: 91 ± 1.8%

MPRRRRSSSRPVRRRRRPRVSRRRRRRGGRRRR [Salmon Sperm Protamine]
inhibition at 33 µM [1, 12]: 87 ± 2.8%
Protection against LF-PA mediated cell killing [3]: complete protection
Protection against CT-mediated cell killing [5]: substantial protection
Protection against PE-mediated cell killing [6]: substantial protection
inhibition at 33 µM [7]: 65 ± 0.5%
Protection against cell death induced by LF and PA63 [11]: reduces cellular sensitivity; also recorded: effectively protected all cells
inhibition at 33 µM [8]: 107 ± 1.4%
inhibition at 33 µM [9, 12]: 96 ± 1.2%

PVRRRRRPRVSR [Salmon Sperm Protamine (11-22)]
IC50 [8]: 5000 ± 130 nM
inhibition at 33 µM [8]: 95 ± 0.1%
inhibition at 33 µM [9, 12]: 84 ± 33%

PVRRRRRPRVSRRRRRRGGRRRR [Salmon Sperm Protamine (11-33)]
IC50 [8]: 10000 ± 40 nM
inhibition at 33 µM [8]: 99 ± 0.2%
inhibition at 33 µM [9, 12]: 86 ± 1.2%

QRQRSRRRRRRSCQTRR [Human Sperm Protamine (18-34)]
IC50 [8]: 24000 ± 150 nM
inhibition at 33 µM [8]: 72 ± 2.1%

RRRRRGGRRRR [Salmon Sperm Protamine (23-33)]
IC50 [8]: 15000 ± 10 nM
inhibition at 33 µM [8]: 93 ± 2.4%
inhibition at 33 µM [9, 12]: 150 ± 5.3%
